Measurements reported in patent US12049520B2, “Bicyclic peptide ligands specific for CD137” (priority 2017, dated 2024).
Entries after “also recorded” stand apart in the source; their conditions may differ.

Assays:
[1] = biological target: T1, CD137 (Homo sapiens, UniProt Q07011); experiment: CD137 cell activity, Promega CD137 NF-κB luciferase reporter assay in Jurkat cells, antagonism of CD137L; assay type: cell-based; set-up: host or cells: Jurkat (CD137 Jurkat reporter cells); settings: co-incubation with trimeric CD137L, FIG. 1
T1 sequence (Q07011 24-255): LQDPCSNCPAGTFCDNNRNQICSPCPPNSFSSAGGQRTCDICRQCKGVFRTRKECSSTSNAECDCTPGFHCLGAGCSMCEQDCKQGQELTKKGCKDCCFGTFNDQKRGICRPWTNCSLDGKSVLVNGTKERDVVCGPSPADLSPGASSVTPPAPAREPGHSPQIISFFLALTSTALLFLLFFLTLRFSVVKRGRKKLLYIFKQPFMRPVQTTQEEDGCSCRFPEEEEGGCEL
Method: The biological activity of the CD137-specific peptides was tested using the cellular CD137 luciferase reporter assay kit (Promega). The cells in this commercially available kit express luciferase that is activated down-stream of CD137. This assay can be used to assess agonism (exemplified by CD137 ligand, CD137L) and antagonism (exemplified by bicyclic peptide 74-01-04-N002).
The Promega CD137 cell-activity assay uses NF-κB luciferase luminescence as a read-out of CD137 activation in Jurkat cells. […] Dilute and then titrate down the bicyclic peptide in a sterile 96 well-plate. […] Prepare enough reagent for duplicate samples and then perform ⅓ dilution series dilution series. Include positive control CD137L and bicyclic peptide alone. […] Add 50 μl cells/well to white cell culture plate. Add 12.5 μl bicyclic peptide (at 6× final concentration) to the cells.
Co-incubate cells together with CD137L agonist and bicyclic peptide for 6 h at 37° C., 5% CO2. After 6 h thaw Bio-Glo™ and develop the assay at room-temperature. Add 75 μl Bio-Glo™ per well and incubate 5-10 min. Read luminescence signal on Pherastar plate-reader LUM plus models, gain 3600 using MARS software. Analyse data by calculating the percentage inhibition compared to CD137L alone. […]
The CD137 reporter activity was determined as NF-κB promotor driven luciferase activity.

[2] = biological target: T1, CD137; experiment: Fluorescence polarization competition binding assay, tracer BCY640 against CD137L, Urelumab, Utomilumab; set-up: purchased AcroBiosystems; settings: BCY640 tracer at 1 nM, CD137 500 nM, FIGS. 2 and 3
Method: The binding site of the hCD137-specific Bicycle peptide was determined by competition experiment between a fluorescent labelled CD137 binding peptide and natural ligand CD137L, agonistic antibodies Urelumab and Utomilumab. Urelumab antibody binds to a distinct binding site while CD137L and Utomilumab both bind to the site termed the ligand-binding site.
The competitor agonists CD137L (R&D systems), Urelumab and Utomilumab were diluted in assay buffer 20 mM HEPES, 150 mM NaCl, 0.05% P20, pH7.5 to a top concentration of 500-1000 nM. The human CD137 protein (AcroBiosystems) was diluted to 500 nM final concentration in the assay. […] The assay was typically set up by adding 5 μL agonist competitor, 10 μL CD137 protein then 10 μL fluorescent peptide. The total volume of 25 μL was prepared in black walled and bottomed low binding low volume 384 well plates. Measurements were conducted on a BMG PHERAstar FS equipped with an FP 485 520 520 optic module at 25° C. with 200 flashes per well and a positioning delay of 0.1 second. Each well was measured every 5 minutes for 60 minutes. The gain was set in a well containing tracer without target protein. The mP-values at the end of the 60 minutes read were plotted against concentration of the agonists. Reduction in the mP-values indicates competition between the known agonist and the tracer peptide.

[3] = biological target: T1, CD137; experiment: CD137 direct binding assay (fluorescence polarisation); settings: D-Alanine scan, reference BCY7151
Method: Affinity of the peptides of the invention for human CD137 (Ki) was determined using a fluorescence polarisation assay, in accordance with the methods disclosed in WO 2016/067035. Peptides of the invention were labelled with a fluorescent tag (fluorescein, FI) and diluted to 2.5 nM in 50 mM HEPES with 100 mM NaCl and 0.05% tween pH 7.5. CD137 protein was titrated starting at 3 μM in the same assay buffer as the peptide to assay 1 nM peptide in a total volume of 25 μL in black walled and bottomed low bind low volume 384 well plates. The assay was typically set up by adding 5 μL assay buffer, 10 μL CD137 protein then 10 μL fluorescent peptide. The concentrations of CD137 protein were 1 in 2 serial dilutions to give 12 different concentrations starting at 3 μM. Measurements were conducted on a BMG PHERAstar FS equipped with an FP 485 520 520 optic module at 25° C. with 200 flashes per well and a positioning delay of 0.1 second. Alternatively, the measurements were performed using Envision (PerkinElmer) equipped with FITC FP Dual Enh mirror, set to 30 flashes. Each well was measured every 5 minutes for 60 minutes. The gain used for analysis was determined for each tracer at the end of the 60 minutes where there was no protein in the well. The mP were fit to a standard 1:1 binding model with a quadratic equation to generate a Kd value.

## ACIEEGQYCFADPYMCA [BCY592]
[1]
  effect on CD137L activity in CD137 reporter cells: can act as an antagonist that inhibits CD137L activity; also recorded: inhibited CD137L activity

## ACIEEGQYCFADPYMCA-Sar6-K [BCY640]
[2]
  binding site on CD137 by competition: binds to the physiologically relevant epitope that is shared with both the natural CD137 ligand (CD137L) and CD137 antibody (Utomilumab)

## [PEG3]-ACIEEaQYCFADPY(Nle)CA [BCY7297]
[3]
  affinity relative to the reference peptide: improved affinity
